Source: US20120083486A1, “KIT, COMPOSITION, PRODUCT OR MEDICAMENT FOR TREATING COGNITIVE IMPAIRMENT” (ZENYAKU KOGYO KABUSHIKIKAISHA, priority 2008, published 2012)

Assays:
[1] = tested on: extracellular levels of acetylcholine (ACh) in a rat hippocampus; experiment: extracellular levels of acetylcholine (ACh) in rat hippocampus (microdialysis, HPLC-ECD); type: in vivo; settings: alone, compared with 1% CMC group
Description: Food and water were provided ad libitum. All animal care and treatment was conducted in accordance with the Guidelines for the Care and Use of Laboratory Animals, established at the Central Research Laboratory, Zenyaku Kogyo Co., Ltd.

[2] = tested on: scopolamine-induced cognitive impairment; experiment: passive avoidance task, scopolamine-induced cognitive impairment in mice; type: in vivo; settings: alone, compared with 1% CMC and scopolamine group
Description: Eight to nine week old male ICR strain mice (Charles River Laboratories Japan, Inc.) were used in the experiment. They were housed in a cage in groups of 3 or 4 mice, in a room maintained at around 22 degree C. under 12 hour light/dark cycles. Food and water were provided ad libitum. All animal care and treatment was conducted in accordance with the Guidelines for the Care and Use of Laboratory Animals, established at the Central Research Laboratory, Zenyaku Kogyo Co., Ltd.
Compound 1 and donepezil were suspended in 1% carboxymethyl cellulose (CMC). […] For the coadministration studies of Compound 1 and donepezil, both drug suspensions were mixed together and this mixed suspension was […]. All drugs were prepared immediately before use and orally administered at a dosage of 10 ml/kg.
The passive avoidance apparatus (Neuroscience Inc.) consisted of an illuminated chamber and a larger dark chamber. Two chambers were separated by a guillotine door. Oral administration of compound 1 at doses of 0.0001 mg/kg or 0.001 mg/kg and/or donepezil at doses of 0.01 and 0.1 mg/kg was given 60 min before the acquisition trial. […] The matched control group only received the vehicle. During the acquisition trial, each mouse was placed in the illuminated chamber. Immediately after the entry into the dark chamber, the door was closed and an inescapable scrambled electric shock (100 V, 0.4 mA, 1.5 sec) was delivered through the floor grid. Twenty-four hours later, each mouse was placed in the illuminated chamber for retention trial. The interval between placement in the illuminated chamber and entry into the dark chamber was measured as step through latency (maximum 300 seconds).
A P level of <0.05 was considered indicative of statistical significance for the tests.

In the case of `O=C1N=C2C=CC=CN2C12Cc1ccccc1C2` [compound 1, spiro[imidazo[1,2-a]pyridin-2(3H)-one-3,2′-indan]], the “extracellular level of ACh in the hippocampus” value ([1]; compound 1 0.001 mg/kg oral) is reported as “did not significantly increase”, the “step-through latency in retention trial” value ([2]; compound 1 0.0001 mg/kg oral) is reported as “did not significantly prolong the step-through latency” and the “step-through latency in retention trial” value ([2]; compound 1 0.001 mg/kg oral, P<0.05) is reported as “prolonged the step-through latency”.

For `COc1cc2c(cc1OC)C(=O)C(CC1CCN(Cc3ccccc3)CC1)C2` (stereo not drawn) [donepezil], the “extracellular level of ACh in the hippocampus” value ([1]; donepezil 1 mg/kg oral) was “did not significantly increase”, the “step-through latency in retention trial” value ([2]; donepezil 0.01 mg/kg oral) was “did not significantly prolong the step-through latency” and the “step-through latency in retention trial” value ([2]; donepezil 0.1 mg/kg oral, P<0.05) was “prolonged the step-through latency”.
